How the values were obtained:
[1] = test system: tauopathy mouse model; conditions: cited from earlier work
[2] = molecular target: T1, HDAC6 enzyme (Homo sapiens, UniProt Q9UBN7); assay: HDAC6 enzyme inhibitory assay (HDAC-Glo I/II Assay kit, luminescence); format: biochemical; conditions: 10 μM test compound; wells without enzyme = 100% inhibition; read-out: HDAC6 inhibitory rate (%) (10 μM)
T1 construct: prepared by transducing full length HDAC6 gene into Sf-9 insect cells; GST; purchased SignalChem; host or cells: Sf-9 insect cells
T1 sequence (Q9UBN7 1-1215): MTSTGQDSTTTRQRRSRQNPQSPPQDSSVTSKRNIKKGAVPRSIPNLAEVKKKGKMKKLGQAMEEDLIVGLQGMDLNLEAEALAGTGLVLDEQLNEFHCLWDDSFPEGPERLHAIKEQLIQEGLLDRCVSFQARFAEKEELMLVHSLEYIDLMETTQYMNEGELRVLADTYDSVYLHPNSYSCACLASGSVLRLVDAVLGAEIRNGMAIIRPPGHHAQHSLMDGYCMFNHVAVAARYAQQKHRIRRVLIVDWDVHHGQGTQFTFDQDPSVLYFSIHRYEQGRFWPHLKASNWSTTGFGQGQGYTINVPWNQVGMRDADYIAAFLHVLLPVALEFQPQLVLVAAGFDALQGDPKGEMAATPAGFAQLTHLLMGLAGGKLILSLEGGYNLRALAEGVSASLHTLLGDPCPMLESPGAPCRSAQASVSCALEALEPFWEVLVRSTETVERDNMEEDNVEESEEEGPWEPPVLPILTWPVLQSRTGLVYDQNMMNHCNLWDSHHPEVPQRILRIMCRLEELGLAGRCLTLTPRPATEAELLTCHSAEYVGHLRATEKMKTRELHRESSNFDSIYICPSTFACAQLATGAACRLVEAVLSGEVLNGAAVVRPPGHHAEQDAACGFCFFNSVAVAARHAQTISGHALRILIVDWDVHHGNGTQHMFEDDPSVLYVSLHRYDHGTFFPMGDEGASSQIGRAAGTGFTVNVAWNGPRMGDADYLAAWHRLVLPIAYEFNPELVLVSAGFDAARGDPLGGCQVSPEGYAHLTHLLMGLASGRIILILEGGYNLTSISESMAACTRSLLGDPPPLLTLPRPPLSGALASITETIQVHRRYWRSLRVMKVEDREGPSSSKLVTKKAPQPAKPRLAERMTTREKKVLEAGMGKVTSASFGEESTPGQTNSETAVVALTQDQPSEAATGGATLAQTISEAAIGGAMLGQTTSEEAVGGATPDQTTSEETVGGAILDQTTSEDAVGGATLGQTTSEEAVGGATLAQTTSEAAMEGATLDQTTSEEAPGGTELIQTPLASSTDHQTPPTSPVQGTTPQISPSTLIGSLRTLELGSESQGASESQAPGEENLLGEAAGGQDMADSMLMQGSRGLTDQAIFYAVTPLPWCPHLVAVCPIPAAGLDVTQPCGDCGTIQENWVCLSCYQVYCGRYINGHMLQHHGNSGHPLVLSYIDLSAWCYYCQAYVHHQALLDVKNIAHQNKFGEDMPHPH
Method in brief: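 Full-length human HDAC6, GST-purified from Sf-9 cells, was preincubated with compound for 60 min at room temperature in Tris-HCl pH 7.5 buffer with glutathione and Tween-20. Substrate-developer was then added, and luminescence was read after 20 min at room temperature. Inhibition was expressed relative to no-enzyme wells, taken as 100% inhibition.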

Row | inhibition at 10 µM [2] [%] | SMILES | acetylation of tubulin [1] | therapeutic effectiveness [1]
1 |  | CN1CCc2c(c3ccccc3n2Cc2ccc(C(=O)NO)cc2)C1 [Tubastatin A] | increases acetylation of tubulin | shows therapeutic effectiveness
2 | 99 | CCS(=O)(=O)N(Cc1ccc(F)cc1)N1Cc2ccc(-c3nnc(C(F)F)o3)cc2C1=O [Example 27c, N-{6-[5-(difluoromethyl)-1,3,4-oxadiazol-2-yl]-1-oxo-1,3-dihydro-2H-isoindol-2-yl}-N-[(4-fluorophenyl)methyl] ethanesulfonamide] |  | 
3 | 100 | CN1C(=O)c2cc(-c3nnc(C(F)F)o3)ccc2OC1(C)c1cccnc1 (stereo not shown) [Example 43b, 6-[5-(difluoromethyl)-1,3,4-oxadiazol-2-yl]-2,3-dimethyl-2-(pyridin-3-yl)-2,3-dihydro-4H-1,3-benzoxazin-4-one] |  | 

From patent US12084436B2, “Heterocyclic compound” (Takeda Pharmaceutical Company Limited, priority 2019, dated 2024)
